Drawing on US20090209598A1, “Resorcine Derivatives and Their Use as Pesticides” (priority 2005, published 2009), this text covers mortality for 1 compound.

Bounds are passed on as bounds.

What all share (test): whole plant or invertebrate
Holding throughout (type): in vivo

The test system of test [1] is Boll Weevil (Anthonomus grandis). The conditions noted are these: eggs sprayed with 20 μl test solution, 3 to 5 days. As to the method:
1. Activity Against Boll Weevil (Anthonomus grandis)
The active compounds were formulated in 1:3 DMSO:water. 10 to 15 eggs were placed into microtiterplates filled with 2% agar-agar in water and 300 ppm formaline. The eggs were sprayed with 20 μl of the test solution, the plates were sealed with pierced foils and kept at 24-26° C. and 75-85% humidity with a day/night cycle for 3 to 5 days. Mortality was assessed on the basis of the remaining unhatched eggs or larvae on the agar surface and/or quantity and depth of the digging channels caused by the hatched larvae. Tests were replicated 2 times.

In test [2] the test system is Tobacco Budworm (Heliothis virescens). The conditions noted are these: 144 h, eggs sprayed with 10 μl test solution, 6 days. The protocol:
2. Activity Against Tobacco Budworm (Heliothis virescens)
The active compounds were formulated in 1:3 DMSO:water. 15 to 25 eggs were placed into microtiterplates filled with diet. The eggs were sprayed with 10 μl of the test solution, the plates were sealed with pierced foils and kept at 27-29° C. and 75-85% humidity under fluorescent light for 6 days. Mortality was assessed on the basis of the agility and of comparative feeding of the hatched larvae. Tests were replicated 2 times.

For test [3], the system named is Southern Armyworm (Spodoptera Eridania), 2Nd Instar Larvae. The note with it: in Phaseolus lunatus, foliar, 96 h, leaf dip, at 4 days, read-out: mortality in comparison with untreated controls. As to the method:
3. Activity Against Southern Armyworm (Spodoptera Eridania), 2Nd Instar Larvae
The active compounds were formulated for testing the activity against insects and arachnids as a 10.000 ppm solution in a mixture of 35% acetone and water, which was diluted with water, if needed.
A Sieva lima bean leaf was dipped in the test solution and allowed to dry. The leaf was then placed in a plastic perforated zip enclosure bag and ten 2nd instar larvae were added. At 4 days, observations are made of mortality and reduced feeding.

Test [4] deals with diamond back moth (plutella xylostella). The conditions noted are these: foliar, cabbage leaf disk dip, third instar larvae, after 72 h, read-out: mortality in comparison with untreated controls. The protocol:
6. Activity against diamond back moth (plutella xylostella)
The active compounds were formulated in 50:50 acetone:water and 0.1% (vol/vol) Alkamuls EL 620 surfactant. A 6 cm leaf disk of cabbage leaves was dipped in the test solution for 3 seconds and allowed to air dry in a Petri plate lined with moist filter paper. The leaf disk was inoculated with 10 third instar larvae and kept at […] and 50-60% humidity for 3 days. Mortality was assessed after 72 h of treatment.

A word on the mortality: it is the percentage killed. With `FC(F)(F)c1ccc(OCCCCCCOc2cc(Cl)cc(OCC=C(Cl)Cl)c2)nc1` [I.2, 2-{6-[3-chloro-5-(3,3-dichloro-allyloxy)-phenoxy]-hexyloxy}-5-trifluoromethylpyridine], the mortality at 2500 ppm in test [1] and in test [2] was over 75% each time. The mortality at 300 ppm in test [3] was at least 80%; in test [4] it was at least 75%.
